Where “and” joins values, the source holds several entries; their conditions need not be identical. Equal values may be shown once. Read-outs that look alike come from different tables or passages of the source.
Columns and labels:
WT hDAT [1] = target: T1, WT hDAT (Homo sapiens, UniProt Q01959); assay: Kinetic analysis of [3H]DA uptake with or without 2-BP in PC12 cells; type: cell-based; set-up: expressed in transfected cells; host or cells: PC12 cells, transient, pcDNA3.1+; settings: 15 µM 2-BP
T1 sequence (Q01959 whole entry): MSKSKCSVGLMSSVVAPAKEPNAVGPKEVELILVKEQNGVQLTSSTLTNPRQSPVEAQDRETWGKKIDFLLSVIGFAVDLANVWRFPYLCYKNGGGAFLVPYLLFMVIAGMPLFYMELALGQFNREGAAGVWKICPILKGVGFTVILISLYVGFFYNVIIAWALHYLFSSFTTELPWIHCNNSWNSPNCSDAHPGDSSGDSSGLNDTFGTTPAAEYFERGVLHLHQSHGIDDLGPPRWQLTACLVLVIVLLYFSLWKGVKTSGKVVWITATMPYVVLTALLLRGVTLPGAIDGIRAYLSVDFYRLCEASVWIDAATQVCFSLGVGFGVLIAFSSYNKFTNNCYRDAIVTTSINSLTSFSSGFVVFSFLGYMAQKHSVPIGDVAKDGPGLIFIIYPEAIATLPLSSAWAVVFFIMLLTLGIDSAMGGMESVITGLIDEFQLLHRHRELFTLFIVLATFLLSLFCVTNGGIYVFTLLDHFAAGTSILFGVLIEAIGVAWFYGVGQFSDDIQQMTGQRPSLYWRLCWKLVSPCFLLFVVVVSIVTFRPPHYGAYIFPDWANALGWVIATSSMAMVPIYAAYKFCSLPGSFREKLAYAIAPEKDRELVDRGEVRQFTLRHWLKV
Experimental: (§1) This concentration was chosen based on previous studies as well as pilot experiments conducted to determine the optimal concentration (data not shown). […] Intact PC12 cells in 24-well plates transiently expressing WT hDAT or H547A were washed twice with 1× KRH buffer. […] Nonspecific uptake was determined in the presence of 10 µM nomifensine and desipramine. […] specific uptake, nonspecific uptake was subtracted from total uptake. To determine the effects of 2-BP exposure at the 2 h time point, the cells were incubated similarly as above, but allowed to incubate at room temperature for 2 h. After each incubation, cells were washed twice with ice-cold 1× KRH buffer to terminate the […], lysed with 500 µl 1 % SDS, and allowed to shake at room temperature for an hour. Lysates were collected into scintillation vials and radioactivity was measured via liquid scintillation as above. Radioactivity was measured the next day using a liquid scintillation counter (model Tri-Carb 2900TR; PerkinElmer Life and Analytical Sciences, Waltham, MA).

hDAT H547A = target: T2, hDAT H547A (Homo sapiens, UniProt Q01959, H547A); assay: as above; type: cell-based; settings: 15 µM 2-BP
T2 construct: expressed in transfected cells; host or cells: PC12 cells, transient, pcDNA3.1+
T2 sequence (Q01959 whole entry H547A): as the sequence (Q01959 whole entry) above, with H547A counted along it
Experimental: as §1

hDAT D206L/H547A [2] = target: T3, hDAT D206L/H547A (Homo sapiens, UniProt Q01959, D206L/H547A); assay: [3H]DA uptake kinetics and inhibition in intact PC12 cells; type: cell-based
T3 construct: expressed in transfected cells; host or cells: PC12 cells, transient, pcDNA3.1+
T3 sequence (Q01959 whole entry D206L/H547A): as the sequence (Q01959 whole entry) above, with D206L, H547A counted along it

hDAT D206L [3] = target: T4, hDAT D206L (Homo sapiens, UniProt Q01959, D206L); assay: as above; type: cell-based
T4 construct: expressed in transfected cells; host or cells: PC12 cells, transient, pcDNA3.1+
T4 sequence (Q01959 whole entry D206L): as the sequence (Q01959 whole entry) above, with D206L counted along it

WT hDAT [4] = target: T1, WT hDAT; type: binding; set-up: expressed in transfected cells; host or cells: PC12 cells, transient, pcDNA3.1+; settings: for increase in specific [3H]WIN35,428 binding: Fig. 6d; for Bmax of [3H]WIN35,428 binding: PC12 cells
Experimental: (§2) For the competitive inhibition experiment, assays were performed in duplicate in a final volume of 500 µl. […] Assays were terminated by removal of reaction reagents in well and then washed three times with ice-cold assay buffer. Cells were lysed with 1 % SDS for an hour. Radioactivity was determined as described above.

hDAT D381L [5] = target: T5, hDAT D381L (Homo sapiens, UniProt Q01959, D381L); assay: [3H]DA uptake kinetics and inhibition in intact PC12 cells; type: cell-based
T5 construct: expressed in transfected cells; host or cells: PC12 cells, transient, pcDNA3.1+
T5 sequence (Q01959 whole entry D381L): as the sequence (Q01959 whole entry) above, with D381L counted along it

hDAT Y88F/D206L/H547A [6] = target: T6, hDAT Y88F/D206L/H547A (Homo sapiens, UniProt Q01959, D206L/H547A/Y88F); assay: [3H]WIN35,428 binding in intact PC12 cells
T6 construct: expressed in transfected cells; host or cells: PC12 cells, transient, pcDNA3.1+
T6 sequence (Q01959 1-620 Y88F/D206L/H547A): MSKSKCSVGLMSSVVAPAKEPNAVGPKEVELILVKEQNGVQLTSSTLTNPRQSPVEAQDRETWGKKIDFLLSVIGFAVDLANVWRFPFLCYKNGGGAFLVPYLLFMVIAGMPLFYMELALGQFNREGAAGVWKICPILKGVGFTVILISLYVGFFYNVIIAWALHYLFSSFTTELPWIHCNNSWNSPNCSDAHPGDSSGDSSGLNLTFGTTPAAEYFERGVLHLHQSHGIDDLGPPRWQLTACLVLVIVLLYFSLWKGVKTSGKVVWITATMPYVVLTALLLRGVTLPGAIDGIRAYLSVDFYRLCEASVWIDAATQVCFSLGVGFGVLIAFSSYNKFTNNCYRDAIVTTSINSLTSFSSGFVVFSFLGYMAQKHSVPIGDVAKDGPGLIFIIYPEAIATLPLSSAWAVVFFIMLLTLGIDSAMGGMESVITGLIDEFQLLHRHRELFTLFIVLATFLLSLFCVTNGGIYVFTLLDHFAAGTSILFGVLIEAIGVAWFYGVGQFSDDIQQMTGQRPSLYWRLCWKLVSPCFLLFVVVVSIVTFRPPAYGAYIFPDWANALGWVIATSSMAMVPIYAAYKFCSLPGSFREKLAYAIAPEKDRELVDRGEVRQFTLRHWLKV
Experimental: as §2

hDAT D381L [7] = target: T5, hDAT D381L; assay: [3H]WIN35,428 binding in intact PC12 cells
Experimental: as §2

hDAT D206L [8] = target: T4, hDAT D206L; assay: [3H]WIN35,428 binding in intact PC12 cells
Experimental: as §2

hDAT D206L/H547A [9] = target: T3, hDAT D206L/H547A; assay: [3H]WIN35,428 binding in intact PC12 cells
Experimental: as §2

hDAT Y88F/D206L/H547A [10] = target: T6, hDAT Y88F/D206L/H547A; assay: [3H]DA uptake kinetics and inhibition in intact PC12 cells; type: cell-based
WT hDAT [11] = target: T1, WT hDAT; settings: for Vmax of [3H]DA uptake: PC12 cells
[12] = ZnCl2 1, 10, 100 µM, concentration-dependent

CCCCCCCCCCCCCCC(Br)C(=O)O (stereo not drawn) [2-BP, 2-bromopalmitate]
Vmax of [3H]DA uptake in the presence of 2-BP (WT hDAT [1]; 0 h): 5.36 ± 0.74 pmol/min/10^5 cells
Vmax of [3H]DA uptake in the presence of 2-BP (WT hDAT [1]; 2 h): 5.55 ± 0.92 pmol/min/10^5 cells
Vmax of [3H]DA uptake in the presence of 2-BP (hDAT H547A; 0 h): 6.41 ± 1.45 pmol/min/10^5 cells
Vmax of [3H]DA uptake in the presence of 2-BP (hDAT H547A; 2 h): 5.56 ± 1.93 pmol/min/10^5 cells and 5.66 ± 1.93 pmol/min/10^5 cells

[Cl-].[Cl-].[Zn+2] [Zn^2+, ZnCl2]
zinc effect on [3H]DA uptake (hDAT D206L/H547A [2]; [12]): decrease
zinc effect on [3H]DA uptake (hDAT D206L [3]; [12]): decrease
increase in specific [3H]WIN35,428 binding (WT hDAT [4]; 10 µM Zn2+): 39%
increase in specific [3H]WIN35,428 binding (WT hDAT [4]; 100 µM Zn2+): 52%
zinc effect on specific [3H]WIN35,428 binding (WT hDAT [4]; [12]): increase
zinc effect on [3H]DA uptake (hDAT D381L [5]; [12]): decrease
zinc-induced increase in [3H]WIN35,428 binding versus WT hDAT (hDAT Y88F/D206L/H547A [6]; 10 and 100 µM Zn2+, Fig. 6d): attenuated
zinc effect on specific [3H]WIN35,428 binding (hDAT D381L [7]; [12]): increase
zinc effect on specific [3H]WIN35,428 binding (hDAT D206L [8]; [12]): increase
zinc-induced increase in [3H]WIN35,428 binding versus WT hDAT (hDAT D206L/H547A [9]; 10 and 100 µM Zn2+, Fig. 6d): attenuated
zinc effect on [3H]DA uptake (hDAT Y88F/D206L/H547A [10]; [12]): decrease

NCCc1ccc(O)c(O)c1 [[^3H]DA, 3,4-ethyl-2[N-^3H]dihydroxyphenylethylamine]
Km (hDAT D206L [3]; PC12 cells): 1.66 ± 0.78 µM
Km (WT hDAT [11]; read-out: Km of [3H]DA uptake, PC12 cells, Table 2 series): 0.45 ± 0.21 µM
Km (hDAT D381L [5]; PC12 cells): 1.04 ± 0.34 µM

[3H]C(CN)c1ccc(O)c(O)c1 (stereo not drawn) [[^3H]DA, 3,4-ethyl-2[N-^3H]dihydroxyphenylethylamine]
Vmax of [3H]DA uptake (hDAT D206L/H547A [2]; PC12 cells): 40.82 ± 3.60 pmol/min/10^5 cells
Vmax of [3H]DA uptake (hDAT D206L [3]; PC12 cells): 13.09 ± 3.55 pmol/min/10^5 cells
Vmax of [3H]DA uptake (WT hDAT [11]; Table 1 series (single mutants)): 12.43 ± 2.50 pmol/min/10^5 cells
Vmax of [3H]DA uptake (WT hDAT [11]; Table 2 series (double and triple mutants)): 26.62 ± 3.87 pmol/min/10^5 cells
Vmax of [3H]DA uptake (hDAT D381L [5]; PC12 cells): 4.54 ± 0.95 pmol/min/10^5 cells
Vmax of [3H]DA uptake (hDAT Y88F/D206L/H547A [10]; PC12 cells): 10.78 ± 0.98 pmol/min/10^5 cells

COC(=O)[C@H]1[C@@H](c2ccc(F)cc2)C[C@@H]2CC[C@H]1N2C [[^3H]WIN35,428]
Bmax of [3H]WIN35,428 binding (WT hDAT [4]; Table 3 series): 3.32 ± 0.58 pmol/10^5 cells
Bmax of [3H]WIN35,428 binding (WT hDAT [4]; Table 4 series): 2.44 ± 0.40 poml/10^5 cells
Bmax of [3H]WIN35,428 binding (hDAT Y88F/D206L/H547A [6]; PC12 cells): 3.50 ± 0.47 poml/10^5 cells
Bmax of [3H]WIN35,428 binding (hDAT D381L [7]; PC12 cells): 2.00 ± 0.63 pmol/10^5 cells
Bmax of [3H]WIN35,428 binding (hDAT D206L [8]; PC12 cells): 2.87 ± 0.96 pmol/10^5 cells
Bmax of [3H]WIN35,428 binding (hDAT D206L/H547A [9]; PC12 cells): 4.95 ± 1.28 poml/10^5 cells

Reference: publication PMC8329121 (Journal of Neuroimmune Pharmacology, 2021)
